Test results published in patent US20130245064A1, “NOVEL NEUROTRYPSIN INHIBITORS” (priority 2010, published 2013).

Tests used:
[1] = Effect of compound on body weight in mice; type: in vivo, C57/BL6 mice; details: 25 mg/kg, three subcutaneous injections
Protocol: (§1) Adult (P50) C57/BL6 mice from Charles River were used for the experiments. All animal experiments are performed in accordance with international guidelines for proper conduct of animal experiment under jurisdiction of the Swiss law (Permit number ZH-18/2008). For every mouse in the experiment the well-being during the interventions is documented in a score sheet.
The mice are housed under optimal hygienic conditions (OHB) with controlled air-conditioning and lighting (temperature: 20-24° C., humidity: 55-65%, day/night cycle: 12 h/12 h, lights on 7 a.m.). Individually ventilated cages of type II, L (530 cm^2 floor space) with standard litter are used. A maximum of 6 mice is kept in each cage. Mice are fed with standard rodent chow (Extrudat, KLIBA NAFAG) ad libitum and have free access to drinking water. Animal colony is managed and maintained at BioSupport, Schlieren.
Three adult mice were treated with 2.5 ml/kg of a 10 mg/ml solution of the compound of Example 1 in 100% DMSO. This corresponds to a dose of 25 mg/kg active ingredient. As vehicle control, 3 mice were treated with 2.5 ml/kg of 100% DMSO. Each mouse received three subcutaneous injections. Between dose 1 and dose 2 there were 8 h, between dose 2 and dose 3 16 h. 5 h after the last injection the mice were euthanatized with CO2. […]

[2] = target: T1, Kallikrein (Homo sapiens, UniProt P03952); assay: Determination of IC50 for various proteases: kallikrein; type: biochemical; details: kallikrein 2 nM, substrate S-2288 0.5 mM; Mean ± SD
T1 construct: purchased American diagnostic
Protocol: (§2) A 6 mM solution of the test compound in DMSO was prepared. In a V-bottom micro plate the 6 mM compound solution was diluted 6 times in DMSO to obtain a concentration row with the following concentrations: 6 mM, 1.8 mM, 540 μM, 162 μM, 48.8 μM, 14.4 μM, and 4 μM. From this DMSO master plate 1:20 dilutions in 10 mM MOPS pH 8.3 were prepared to obtain solutions of 300, 90, 27, 8.1, 2.44, 0.72 and 0.22 μM in MOPS buffer and 5% DMSO.
(§3) 100 μl of this solution were pipetted into a flat bottom 96 well microplate and placed into a Tecan infinite 200 plate reader. Before measurement, 50 μl of protease solution and, subsequently 50 μl substrate solution were added by the machine. The liberation of free para nitroanilide was detected at 405 nm. The protease solution was freshly prepared by diluting to the desired concentration from a stock solution in 60 mM MOPS; 600 mM NaCl; 20 mM CaCl2; 10% DMSO; 0.4% PEG 6000 pH 8.3. The substrate solution was prepared by dissolving the solid substrate in an adequate amount of water to get the desired concentrations. The used protease and substrate solutions are given below:
(§4) All enzymes except trypsin were from human origin (American diagnostic). Trypsin was hog trypsin (Sigma Aldrich). Substrates were purchased from Chromogenix. […]

[3] = target: T2, uPA (Homo sapiens, UniProt P00749); assay: Determination of IC50 for various proteases: uPA; type: biochemical; details: uPA 40 nM, substrate S-2288 0.5 mM; Mean ± SD
T2 construct: purchased American diagnostic
Protocol: as §2, §3, §4

[4] = target: T3, tPA (2 chain) (Homo sapiens, UniProt P00750); assay: Determination of IC50 for various proteases: tPA; type: biochemical; details: tPA (2 chain) 40 nM, substrate S-2288 0.5 mM; Mean ± SD
T3 construct: tPA (2 chain); purchased American diagnostic
Protocol: as §2, §3, §4

[5] = test system: C-terminal agrin fragment (CAF); assay: Analysis of serum CAF levels by western blotting in treated mice; type: in vivo, C57/BL6 mice; details: mouse serum pools, 25 mg/kg x 3 s.c., 5 h after last injection, western blot normalized to vehicle
Protocol: as §1
Three adult mice were treated with 2.5 ml/kg of a 10 mg/ml solution of the compound of Example 1 in 100% DMSO. This corresponds to a dose of 25 mg/kg active ingredient. As vehicle control, 3 mice were treated with 2.5 ml/kg of 100% DMSO. Each mouse received three subcutaneous injections. Between dose 1 and dose 2 there were 8 h, between dose 2 and dose 3 16 h. 5 h after the last injection the mice were euthanatized with CO2.
Before the first injection the mice were weighted and ˜100 μl of blood was collected from the lateral tail vein. Serum was prepared with centrifugation of blood samples in Microvette 500 Z-Gel tubes (10,000 g, 20° C., 5 min). […]
After staining for CAF the membrane was washed thoroughly and reused for a staining for endogenous mouse antibodies that served as loading control. […] After imaging with a Stella imaging system (Raytest) the intensity of the CAF bands was measured with AIDA picture analysis software (Raytest) and normalized to the loading levels determined from mouse antibody light chains. […]

T1 sequence (P03952 391-638 limits assumed): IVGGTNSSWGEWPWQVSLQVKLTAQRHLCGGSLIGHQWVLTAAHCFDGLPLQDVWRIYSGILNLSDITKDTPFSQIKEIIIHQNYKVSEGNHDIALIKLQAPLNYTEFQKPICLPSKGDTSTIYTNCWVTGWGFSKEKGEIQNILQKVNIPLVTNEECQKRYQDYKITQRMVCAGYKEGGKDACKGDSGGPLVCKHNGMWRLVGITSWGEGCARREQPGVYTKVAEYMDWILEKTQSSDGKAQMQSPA
T1 sequence (P03952 20-390 limits assumed): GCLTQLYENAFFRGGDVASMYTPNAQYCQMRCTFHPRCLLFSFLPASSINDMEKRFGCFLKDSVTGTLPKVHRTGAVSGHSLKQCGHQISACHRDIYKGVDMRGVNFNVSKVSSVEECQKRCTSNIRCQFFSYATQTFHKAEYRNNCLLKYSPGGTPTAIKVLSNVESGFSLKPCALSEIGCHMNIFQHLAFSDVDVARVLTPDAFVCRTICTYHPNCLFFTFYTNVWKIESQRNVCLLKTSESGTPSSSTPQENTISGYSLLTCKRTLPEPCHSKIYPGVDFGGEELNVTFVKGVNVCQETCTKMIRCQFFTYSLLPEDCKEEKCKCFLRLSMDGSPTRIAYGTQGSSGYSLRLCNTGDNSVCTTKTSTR
T3 sequence (P00750 311-562 limits assumed): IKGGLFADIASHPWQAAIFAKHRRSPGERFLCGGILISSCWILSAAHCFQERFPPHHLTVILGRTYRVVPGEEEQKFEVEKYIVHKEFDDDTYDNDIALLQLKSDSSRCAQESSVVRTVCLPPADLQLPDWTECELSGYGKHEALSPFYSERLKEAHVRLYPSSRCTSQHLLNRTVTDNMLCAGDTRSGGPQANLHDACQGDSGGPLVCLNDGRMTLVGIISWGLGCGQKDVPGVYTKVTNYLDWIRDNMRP
T3 sequence (P00750 36-310 partner limits assumed): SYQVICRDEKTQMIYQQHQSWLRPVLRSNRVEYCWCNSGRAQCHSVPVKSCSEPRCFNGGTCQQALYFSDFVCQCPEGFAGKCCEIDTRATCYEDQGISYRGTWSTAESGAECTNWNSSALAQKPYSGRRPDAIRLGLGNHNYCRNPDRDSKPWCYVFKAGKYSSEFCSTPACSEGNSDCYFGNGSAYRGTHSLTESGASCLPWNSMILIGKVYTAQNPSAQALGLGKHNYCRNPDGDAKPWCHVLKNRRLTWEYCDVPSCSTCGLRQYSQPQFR

melting point: > 220 °C
IC50 [2]: > 150 µM
IC50 [3]: > 150 µM
IC50 [4]: > 150 µM
SMILES: O=C(Nc1ccc(C(=O)Nc2ccc(Cl)cc2)c(O)c1)c1ccc(-c2nc3cc(Cl)c(Cl)cc3[nH]2)cc1 [Example 1, N-(4-Chlorophenyl)-4-(4-(5,6-dichloro-1H-benzo[d]imidazol-2-yl)benzamido)-2-hydroxybenzamide]
Weight loss compared to the vehicle control [1]: did not produce any increase in weight loss
Average CAF levels [5]: 66.6 % of vehicle
